Measured values: patent publication US7030145B2, “Pyridinyl derivatives for the treatment of depression” (Bristol-Myers Squibb Company, priority 2003, dated 2006)

Assays:
[1] = molecular target: T1, cloned human CRF-R1 receptors (Homo sapiens, UniProt P34998); assay: CRF-R1 receptor binding assay (inhibition of 125I-ovine-CRF binding to cell membranes); set-up: key to activity (Ki class in the CRF assays): a: Ki≦100 nM; b: 100 nM<Ki≦500 nM; c: 500 nM<Ki≦5,000 nM; activity reported in percent inhibition at 10 μM; settings: membranes of 293EBNA cells transfected with hCRFR1, class d = reported as percent inhibition at 10 μM, figures not given; for Ki: read-out: activity (Ki class in the CRF assays)
T1 construct: the coding region was amplifies by PCR from start to stop codons; expressed in transfected cells; membranes
T1 sequence (P34998 24-415): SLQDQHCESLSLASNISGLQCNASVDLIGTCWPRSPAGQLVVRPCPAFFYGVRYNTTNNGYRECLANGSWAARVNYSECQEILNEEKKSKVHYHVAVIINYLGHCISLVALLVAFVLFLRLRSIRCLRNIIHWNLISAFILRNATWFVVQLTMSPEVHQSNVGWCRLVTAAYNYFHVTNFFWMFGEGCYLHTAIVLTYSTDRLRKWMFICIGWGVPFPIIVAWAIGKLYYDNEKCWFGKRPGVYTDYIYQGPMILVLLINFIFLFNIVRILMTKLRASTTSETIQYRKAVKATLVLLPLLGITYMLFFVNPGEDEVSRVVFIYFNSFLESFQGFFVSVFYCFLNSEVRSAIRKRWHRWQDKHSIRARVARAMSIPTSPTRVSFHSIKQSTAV
Description: The following is a description of the isolation of cell membranes containing cloned human CRF-R1 receptors for use in a standard binding assay as well as a description of the assay itself.
Messenger RNA was isolated from human hippocampus. […]. The mRNA was reverse transcribed using oligo (dt) 12–18 and the coding region was amplifies by PCR from start to stop codons. The resulting PCR fragment was cloned into the EcoRV site of pGEMV, from whence the insert was reclaimed using XhoI+XbaI and cloned into the XhoI+XbaI sites of vector pm3 as (which contains a CMV promoter, the SV′t′ splice and early poly A signals, an Eptein-Barr viral origin of replication, and a hygromycin selectable marker). The resulting expression vector, called phchCRFR was transfected in 293EBNA cells and cells retaining the episome were selected in the presence of […] hygromycin. Cells surviving 4 weeks of selection in hygromycin were pooled, adapted to growth in suspension and used to generate membranes for the binding assay described below. Individual aliquots containing approximately 1×10^8 of the suspended cells were then centrifuged to form a pellet and frozen. For the binding assay a frozen pellet described above containing 293EBNA cells transfected with hCRFR1 receptors is homogenized in 10 mL of ice cold tissue buffer (50 mM HEPES buffer pH 7.0, containing 10 MM MgCl2, 2 mM EGTA, 1 μg/mL apotinin, 1 μg/mL leupeptin and 1 μg/mL pepstatin). The homoginate is centrifuged at 40,000×g for 12 min and the resulting pellet rehomogenized in 10 mL of tissue buffer. After another centrifugation at 40,000×g for 12 min, the pellet is resuspended to a protein concentration of 360 μg/mL to be used in the assay.
Binding assays are performed in 96 well plates; each well having a 300 μL capacity. To each well is added 50 μL of test drug dilutions (final concentration of drugs range from 10^−10–10^−5 M), 100 μL of ^125I-ovine-CRF (^125I-o-CRF) (final concentration 150 pM) and 150 μL of the cell homoginate described above. Plates are then allowed to incubate at room temperature for 2 hours before filtering the incubate over GF/F filters (presoaked with 0.3% polyethyleneimine) using an appropriate cell harvester. Filters are rinsed 2 times with ice cold assay buffer before removing individual filters and assessing them for radioactivity on a gamma counter.
Curves of the inhibition of ^125I-o-CRF binding to cell membranes at various dilutions of test drug are analyzed by the iterative curve fitting program LIGAND [P. J. Munson and D. Rodbard, Anal. Biochem., 107:220 (1980), which provides Ki values for inhibition which are then used to assess biological activity. […]
Messenger RNA was isolated from human hippocampus. The mRNA was isolated from human hippocampus. The mRNA was reverse transcribed using oligo (dt) 12–18 and the coding region was amplifies by PCR from start to stop codons. The resulting PCR fragment was cloned into the EcoRV site of pGEMV, from whence the insert was reclaimed using XhoI+XbaI and cloned into the XhoI+XbaI sites of vector pm3 as (which contains a CMV promoter, the SV′t′ splice and early poly A signals, an Eptein-Barr viral origin of replication, and a hygromycin selectable marker). The resulting expression vector, called phchCRFR was transfected in 293EBNA cells and cells retaining the episome were selected in the presence of […] hygromycin. Cells surviving 4 weeks of selection in hygromycin were pooled, adapted to growth in suspension and used to generate membranes for the binding assay described below. […]
A frozen pellet described above containing 293EBNA cells transfected with hCRFR1 receptors or the rat frontal cortex tissue dissected from frozen rat brains was prepared as the source of membranes expressing CRF1 receptors used in binding assays. […]

melting point [°C]	Ki [1] [µM]	activity (Ki class in the CRF assays) [1]	Compound
160 to 162	0.5 to 5		Cc1cc(C)c(Nc2nc(C)ccc2S(=O)(=O)c2ccc(OCCCC#N)cc2)c(C)c1 [Example 14, 4-{4-[6-Methyl-2-(2,4,6-trimethylphenylamino)-pyridine-3-sulfonyl]-phenoxy}-butyronitrile]
111 to 113	0.1 to 0.5		CCC(Oc1ccc(S(=O)(=O)c2ccc(C)nc2Nc2c(C)cc(C)cc2C)cc1)C(=O)OC (centres unmarked) [Example 18, 2-{4-[6-Methyl-2-(2,4,6-trimethylphenylamino)-pyridine-3-sulfonyl]-phenoxy}-butyric acid methyl ester]
157 to 159		d	CCOc1ccc(S(=O)(=O)c2ccc(C)nc2Nc2c(C)cc(C)cc2C)cc1 [Example 12, [3-(4-Ethoxybenzenesulfonyl)-6-methylpyridin-2-yl]-(2,4,6-trimethylphenyl)-amine]
115 to 116	0.1 to 0.5		Cc1cc(C)c(Nc2nc(C)ccc2S(=O)(=O)c2ccc(OCCCCC#N)cc2)c(C)c1 [Example 15, 5-{4-[6-Methyl-2-(2,4,6-trimethylphenylamino)-pyridine-3-sulfonyl]-phenoxy}-pentanenitrile]
178 to 180	0.1 to 0.5		Cc1cc(C)c(Nc2nc(C)ccc2S(=O)(=O)c2ccc(OCc3ccc(F)cc3)cc2)c(C)c1 [Example 22, {3-[4-(4-Fluorobenzyloxy)-benzenesulfonyl]-6-methylpyridin-2-yl}-(2,4,6-trimethylphenyl)-amine]
141 to 143	0.1 to 0.5		COc1ccc(C(C)=O)cc1COc1ccc(S(=O)(=O)c2ccc(C)nc2Nc2c(C)cc(C)cc2C)cc1 [Example 35]
100 to 102		d	COc1ccccc1COc1ccc(S(=O)(=O)c2ccc(C)nc2Nc2ccc(S(C)(=O)=O)cc2Cl)cc1 [Example 7, (2-Chloro-4-methanesulfonylphenyl)-{3-[4-(2-methoxybenzyloxy)-benzenesulfonyl]-6-methylpyridin-2-yl}-amine]
132 to 134	0.1 to 0.5		CC(=O)OCc1ccc(S(=O)(=O)c2ccc(C)nc2Nc2c(C)cc(C)cc2C)cc1 [Example 55, Acetic acid 4-[6-methyl-2-(2,4,6-trimethylphenylamino)-pyridine-3-sulfonyl]-benzyl ester]
178 to 180		d	COc1ccccc1COc1ccc(S(=O)(=O)c2ccc(C)nc2Nc2ccc(Cl)cc2C#N)cc1 [Example 8, 5-Chloro-2-{3-[4-(2-methoxybenzyloxy)-benzenesulfonyl]-6-methylpyridin-2-ylamino}-benzonitrile]
62 to 64		d	COc1cc(Cl)c(Nc2nc(C)ccc2S(=O)(=O)c2ccc(OCc3ccccc3OC)cc2)cc1F [Example 2, (2-Chloro-5-fluoro-4-methoxyphenyl)-{3-[4-(2-methoxybenzyloxy)-benzenesulfonyl]-6-methylpyridin-2-yl}-amine]
222 to 225	≤ 0.1		Cc1cc(C)c(Nc2nc(C)ccc2S(=O)(=O)c2ccc(C(=O)c3ccccc3)cc2)c(C)c1 [Example 54, {4-[6-Methyl-2-(2,4,6-trimethylphenylamino)-pyridine-3-sulfonyl]-phenyl}-phenyl-methanone]
87 to 88	0.1 to 0.5		COc1cccc(S(=O)(=O)c2ccc(C)nc2Nc2c(C)cc(C)cc2C)c1 [Example 56, [3-(3-Methoxybenzenesulfonyl)-6-methylpyridin-2-yl]-(2,4,6-trimethylphenyl)-amine]
226 to 228	0.5 to 5		Cc1cc(C)c(Nc2nc(C)ccc2S(=O)(=O)c2ccc(O)cc2)c(C)c1 [Example 10, 4-[6-Methyl-2-(2,4,6-trimethylphenylamino)-pyridine-3-sulfonyl]-phenol]
120 to 121	0.1 to 0.5		COc1cc(COc2cccc(S(=O)(=O)c3ccc(C)nc3Nc3c(C)cc(C)cc3C)c2)cc(OC)c1 [Example 63, {3-[3-(3,5-Dimethoxybenzyloxy)-benzenesulfonyl]-6-methylpyridin-2-yl}-(2,4,6-trimethylphenyl)-amine]
62 to 66		d	COc1ccccc1COc1ccc(S(=O)(=O)c2ccc(C)nc2Nc2cc(OC)c(OC)cc2C)cc1 [Example 4, (4,5-Dimethoxy-2-methylphenyl)-{3-[4-(2-methoxybenzyloxy)-benzenesulfonyl]-6-methylpyridin-2-yl}-amine]
70 to 72		d	COc1ccc(Nc2nc(C)ccc2S(=O)(=O)c2ccc(OCc3ccccc3OC)cc2)c(C)c1 [Example 1, {3-[4-(2-Methoxybenzyloxy)-benzenesulfonyl]-6-methylpyridin-2-yl}-(4-methoxy-2-methylphenyl)-amine]
208 to 210	≤ 0.1		Cc1cc(C)c(Nc2nc(C)ccc2S(=O)(=O)c2ccc(OCc3ccccc3C#N)cc2)c(C)c1 [Example 28, 2-{4-[6-Methyl-2-(2,4,6-trimethylphenylamino)-pyridine-3-sulfonyl]-phenoxymethyl}-benzonitrile]
192 to 201	0.1 to 0.5		Cc1cc(C)c(Nc2nc(C)ccc2S(=O)(=O)c2ccc(OCc3cc(Cl)nc(Cl)c3)cc2)c(C)c1 [Example 20, {3-[4-(2,6-Dichloropyridin-4-ylmethoxy)-benzenesulfonyl]-6-methylpyridin-2-yl}-(2,4,6-trimethylphenyl)-amine]
124 to 126	≤ 0.1		COc1cccc(COc2ccc(S(=O)(=O)c3ccc(C)nc3Nc3c(C)cc(C)cc3C)cc2)c1 [Example 26, {3-[4-(3-Methoxybenzyloxy)-benzenesulfonyl]-6-methylpyridin-2-yl}-(2,4,6-trimethylphenyl)-amine]
110 to 112	0.1 to 0.5		CCc1ccc(S(=O)(=O)c2ccc(C)nc2Nc2ccc(OC)cc2Cl)cc1 [Example 69, (2-Chloro-4-methoxyphenyl)-[3-(4-ethylbenzenesulfonyl)-6-methylpyridin-2-yl]-amine]
136 to 138	≤ 0.1		Cc1cc(C)c(Nc2nc(C)ccc2S(=O)(=O)c2ccc(OCc3cccc(F)c3F)cc2)c(C)c1 [Example 33, {3-[4-(2,3-Difluorobenzyloxy)-benzenesulfonyl]-6-methylpyridin-2-yl}-(2,4,6-trimethylphenyl)-amine]
139 to 141	0.1 to 0.5		Cc1cc(C)c(Nc2nc(C)ccc2S(=O)(=O)c2ccc(F)c(Cl)c2)c(C)c1 [Example 37, [3-(3-Chloro-4-fluorobenzenesulfonyl)-6-methylpyridin-2-yl]-(2,4,6-trimethylphenyl)-amine]
